Test results from patent US8592435B2, “Nitrogen-containing six-membered aromatic ring derivatives and pharmaceutical products containing the same” (Daiichi Sankyo Company, Limited, priority 2007, dated 2013).

Columns and labels:
[1] = system: spinal cord neurons; assay: Test Example 3: ability to promote the neurite outgrowth of spinal cord neurons; assay type: cell-based, Wistar rats; details: Compound Conc. = 0.1 μM; % of control, day 3
Experimental: According to the method of Martin G. Hanson Jr. [J. Neurosci., 1998 Sep. 15; 18(18): 7361-71], the spinal cord region was isolated from 15-day embryos of female Wistar rats and the cells were dispersed using the papain dissociation system. Neurons were collected using 6.8% Metrizamide density gradient and were suspended in 2% FBS+Leibovitz's −15 medium so that the density of the cells will be 2×10^3 cells/well/200 μL. 200 μL of the cell suspension was inoculated on a poly-D-lysine/laminin-coated 96 well plate and the plate was incubated in an incubator at 37° C. Test compounds were added 1 hour after seeding of cells.
On day 3 of the incubation period, neurons were stained with Calcein-AM and the lengths of neurites were determined using IN Cell Analyzer (GE Healthcare Bioscience).
The ability (%) of each test compound to promote neurite outgrowth was calculated from the following equation: The ability to promote neurite outgrowth (%)=[(measurement with a compound of interest)/(measurement of control)]×100
Example Compounds 65, 71, 74, 92, 130 and 135 were used as test compounds and were each added at a concentration of 0.1 μM.
The results are shown in Table 27. bFGF gives a measurement of about 130 in this test.

[2] = system: mixture of human vascular endothelial cells and fibroblasts; assay: Test Example 2: ability to promote angiogenesis (angiogenesis test kit KZ-1000); assay type: cell-based; details: Homo sapiens, 216 h; Compound Conc. = 3 μM; lumen length, % of control, day 9; read-out: Promotion of angiogenesis (%)
Summary of the method: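 Co-culture of human endothelial cells and fibroblasts; compound added on days 1, 4 and 7, CD31 immunostaining on day 9. Lumen length quantified from images and expressed as % of untreated control; 120 used as activity threshold.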

[3] = system: hippocampal neurons; assay: Test Example 1: ability to promote axonal outgrowth; assay type: cell-based, Wistar rats; details: Hippocampal neuron, 216 h; Compound Conc. = 3 μM; % of control; rat hippocampal neurons, day 9; read-out: Promotion of axonal outgrowth (%)
Summary of the method: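 Embryonic day-18 Wistar rat hippocampal neurons were cultured at 37° C, treated with AraC from day 3, and given compound at 3 μM and 0.3 μM on days 3 and 7. On day 9, GAP-43-stained axons were quantified and expressed as % of control; bFGF-based threshold is 120.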

[4] = Repeated oral administration toxicity in rats; assay type: in vivo; details: orally administered repeatedly once a day for one week, 150 mg/kg/day

With `Cc1nc(OCC(=O)N(C)C2CCN(Cc3ccccc3)CC2)nc(C)c1N` [Compound 65, 2-(5-amino-4,6-dimethylpyrimidine-2-yloxy)-N-(1-benzylpiperidine-4-yl)-N-methylacetamide] the “Promotion of spinal cord neurite outgrowth (%)” value [1] was 135%, the activity at 3 µM [2] was 170% and the activity at 3 µM [3] was 134%. For the same molecule, the toxicity [4] was “did not exhibit toxicity”.
